Measured values reported in US7345056B2, “Bridged N-cyclic sulfonamido inhibitors of gamma secretase” (Elan Pharmaceuticals, Inc., priority 2005, dated 2008).

Molecular target: T1, gamma-secretase (partially purified extract of IMR-32 cell membranes) (Homo sapiens, UniProt P49768)
T1 construct: a partially purified extract of IMR-32 cell membranes as the gamma-secretase enzyme preparation; endogenous in cells; host or cells: IMR-32 cell membranes, partially purified extract
Assay: Gamma-secretase APP enzyme assay (cleavage of MBP-C125 Swe at the Aβ40 site, sandwich ELISA)
Format: biochemical
Conditions: MBP-C125swe substrate, IMR-32 membrane extract, 2 h at 37° C., Aβ40 site cleavage product by ELISA; read-out: γAPP (inhibition, IC50)
Excerpt: The gamma-secretase APP enzyme assay was designed to measure the specific proteolytic cleavage of an APP substrate (MBP-C125 Swe fusion protein) at the Aβ40 site. […] This assay involved two steps beginning with the enzymatic reaction generating a cleavage product that was captured with an immobilized antibody specific for the neo-epitope Aβ40 site. The captured cleavage product was then detected in a sandwich ELISA assay with a biotinylated reporter antibody that is specific to Aβ (17-28). Streptavidin-linked alkaline phosphatase was then added that would generate a fluorescent signal proportional to the amount of cleavage product.
This warmed solution of BigCHAPS(N,N-Bis(3-D-gluconamidopropyl)cholamide) detergent was used to dissolve Brain Extract Type-V (lipid containing a minimum of 40% phosphatidylethanolamine) from Sigma (St. Louis, Mo.) to a concentration of 8 mg/ml. This solution containing BigCHAPS and lipid at 8 mg/ml is then diluted to 0.53 mg/ml lipid with a pre-warmed solution of Hepes and sodium chloride. This final solution containing Hepes buffer, sodium chloride, BigCHAPS detergent and lipid is used to create working solutions of both gamma-secretase (25 Units) and the MBP-C125 substrate (0.05 mg/ml).
Gamma-secretase was then added to a 96-well micro-titre plate and then incubated with various concentrations of inhibitor for 30 minutes at 37° C. MBPC125 substrate was then added to initiate the reaction that would run for two hours at 37° C. The reaction was quenched with the addition of SDS to a final concentration of 0.1% and then 100 μl of the reaction mixture was transferred to a capture ELISA plate and incubated overnight at 4° C. Detection of the cleavage product was performed using a standard sandwich ELISA assay and quantified using a six point standard curve.

O=S(=O)(c1ccc(Cl)cc1)N1C2CCCC1c1c(C(F)F)n[nH]c1C2 (stereo not shown) [12-(4-Chloro-benzenesulfonyl)-3-difluoromethyl-4,5,12-triaza-tricyclo[6.3.1.0^2,6]dodeca-2(6),3-diene] and Cc1n[nH]c2c1C1CCCC(C2)N1S(=O)(=O)c1ccc(Cl)cc1 (stereo not shown) [12-(4-Chloro-benzenesulfonyl)-3-methyl-4,5,12-triaza-tricyclo[6.3.1.0^2,6]dodeca-2(6),3-diene] cannot be ordered by IC50: under 100 nM for the first, under 100 nM for the second.

O=S(=O)(c1ccc(Cl)s1)N1C2CCCC1c1cn[nH]c1C2 (stereo not shown) [Example 8, 12-(5-Chloro-thiophene-2-sulfonyl)-4,5,12-triaza-tricyclo[6.3.1.0^2,6]dodeca-2(6),3-diene] and CC1c2[nH]ncc2C2CCCC1N2S(=O)(=O)c1ccc(Cl)cc1 (stereo not shown) [Example 11, 12-(4-Chloro-benzenesulfonyl)-7-methyl-4,5,12-triaza-tricyclo[6.3.1.0^2,6]dodeca-2(6),3-diene] cannot be ordered by IC50: under 100 nM for the first, under 100 nM for the second.

CCC1c2[nH]ncc2C2CCCC1N2S(=O)(=O)c1ccc(Cl)cc1 (stereo not shown) [Example 14, 12-(4-Chloro-benzenesulfonyl)-7-ethyl-4,5,12-triaza-tricyclo[6.3.1.0^2,6]dodeca-2(6),3-diene] and O=S(=O)(c1ccc(Cl)cc1)N1C2CCCC1C(O)c1[nH]ncc12 (stereo not shown) [Example 36, 12-(4-Chloro-benzenesulfonyl)-4,5,12-triaza-tricyclo[6.3.1.0^2,6]dodeca-2(6),3-dien-7-ol] cannot be ordered by IC50: under 100 nM for the first, under 100 nM for the second.

Compared with Cn1ncc2c1CC1CCCC2N1S(=O)(=O)c1ccc(Cl)cc1 (stereo not shown) [Example 53, 12-(4-Chloro-benzenesulfonyl)-5-methyl-4,5,12-triaza-tricyclo[6.3.1.0^2,6]dodeca-2(6),3-diene], O=S(=O)(c1ccc(Cl)cc1)N1C2CCCC1c1cnc3c(-c4ccccc4)cnn3c1C2 (stereo not shown) [Example 62, 16-(4-Chloro-benzenesulfonyl)-6-phenyl-4,8,9,16-tetraaza-tetracyclo-[10,3,1,0^2,10,0^5,9]-hexadeca-2(10),3,5,7-tetraene] is lower in IC50: 250 to 500 nM for the first, 100 to 250 nM for the second.

O=S(=O)(c1ccc(Cl)cc1)N1C2CCCC1c1cnc3cc(-c4ccccc4)nn3c1C2 (stereo not shown) [Example 63, 16-(4-Chloro-benzenesulfonyl)-7-phenyl-4,8,9,16-tetraaza-tetracyclo-[10,3,1,0^2,10,0^5,9]-hexadeca-2(10),3,5,7-tetraene] and O=S(=O)(c1ccc(Cl)cc1)N1C2CCCC1c1cnn(C3CCCCC3)c1C2 (stereo not shown) [Example 66, 12-(4-Chloro-benzenesulfonyl)-5-cyclohexyl-4,5,12-triaza-tricyclo[6.3.1.0^2,6]dodeca-2(6),3-diene] fall in the same range of IC50: 250 to 500 nM for the first, 250 to 500 nM for the second.

O=S(=O)(c1ccc(Cl)cc1)N1C2CCC1c1cn[nH]c1C2 (stereo not shown) [Example 79, 11-(4-Chloro-benzenesulfonyl)-4,5,11-triaza-tricyclo[6.3.1.0^2,6]undeca-2(6),3-diene] and O=S(=O)(c1ccc(Cl)cc1)N1C2CCCC1c1c(C(F)(F)F)n[nH]c1C2 (stereo not shown) [Example 82, 12-(4-Chloro-benzenesulfonyl)-3-trifluoromethyl-4,5,12-triaza-tricyclo-[6.3.1.0^2,6]dodeca-2(6),3-diene] cannot be ordered by IC50: under 100 nM for the first, under 100 nM for the second.

CC(=O)n1cc2c(n1)CC1CCCC2N1S(=O)(=O)c1ccc(Cl)cc1 (stereo not shown) [Example 83, 1-[12-(4-Chloro-benzenesulfonyl)-4,5,12-triaza-tricyclo[6.3.1.0^2,6]dodeca-2,5-dien-4-yl]-ethanone] and CC(C)C(=O)n1cc2c(n1)CC1CCCC2N1S(=O)(=O)c1ccc(Cl)cc1 (stereo not shown) [Example 84, 1-[12-(4-Chloro-benzenesulfonyl)-4,5,12-triaza-tricyclo[6.3.1.0^2,6]dodeca-2,5-dien-4-yl]-2-methyl-propan-1-one] cannot be ordered by IC50: under 100 nM for the first, under 100 nM for the second.

Compared with CC(=O)OC(C)(C)C(=O)n1cc2c(n1)CC1CCCC2N1S(=O)(=O)c1ccc(Cl)cc1 (stereo not shown) [Example 85, Acetic acid 2-[12-(4-chloro-benzenesulfonyl)-4,5,12-triaza-tricyclo[6.3.1.0^2,6]dodeca-2,5-dien-4-yl]-1,1-dimethyl-2-oxo-ethyl ester], C=CCOC(=O)n1cc2c(n1)CC1CCCC2N1S(=O)(=O)c1ccc(Cl)cc1 (stereo not shown) [Example 86, 12-(4-Chloro-benzenesulfonyl)-4,5,12-triaza-tricyclo[6.3.1.0^2,6]dodeca-2,5-diene-4-carboxylic acid allyl ester] is higher in IC50: under 100 nM for the first, 250 to 500 nM for the second.

Nc1ncc2c(n1)CC1CCCC2N1S(=O)(=O)c1ccc(Cl)cc1 (stereo not shown) [Example 87, 13-(4-Chloro-benzenesulfonyl)-4,6,13-triaza-tricyclo[7.3.1.0^2,7]trideca-2(7),3,5-trien-5-ylamine] and O=S(=O)(c1ccc(Cl)cc1)N1C2CCCC1c1c(C(F)(F)F)n[nH]c1C2 (stereo not shown) [Example 89, 12-(4-Chloro-benzenesulfonyl)-3-trifluoromethyl-4,5,12-triaza-tricyclo-[6.3.1.0^2,6]dodeca-2(6),3-diene] fall in the same range of IC50: 100 to 250 nM for the first, 100 to 250 nM for the second.

First: O=S(=O)(c1ccc(Cl)cc1)N1C2CCCC1c1c(Cl)n[nH]c1C2 (stereo not shown) [Example 91, 3-Chloro-12-(4-chloro-benzenesulfonyl)-4,5,12-triaza-tricyclo[6.3.1.0^2,6]dodeca-2(6),3-diene]
Second: Nc1n[nH]c2c1C1CCCC(C2)N1S(=O)(=O)c1ccc(Cl)cc1 (stereo not shown) [Example 94, 12-(4-Chloro-benzenesulfonyl)-4,5,12-triaza-tricyclo[6.3.1.0^2,6]dodeca-2(6),3-dien-3-ylamine]
The IC50 of the first is higher: 250 to 500 nM for the first, under 100 nM for the second. The second is the more potent here.

Nc1n[nH]c2c1C1CCCC(C2)N1S(=O)(=O)c1ccc(Cl)cc1 (stereo not shown) [Example 97, 12-(4-Chloro-benzenesulfonyl)-4,5,12-triaza-tricyclo[6.3.1.0^2,6]dodeca-2(6),3-dien-3-ylamine] and “N-[12-(4-Chloro-benzenesulfonyl)-4,5,12-triaza-tricyclo[6.3.1.0^2,6]dodeca-2(6),3-dien-7-yl]-acetamide [Example 98]” cannot be ordered by IC50: under 100 nM for the first, under 100 nM for the second.
